Results on 55 compounds are retold here after patent US8779154B2, “Fused ring compounds for inflammation and immune-related uses” (priority 2006, dated 2014).

Structures are written as SMILES. pIC50: −log10 of the molar value.

The subject of the first experiment is IL-2 production. Briefly: Inhibition of IL-2 production in PHA-activated Jurkat cells (ELISA). To be noted: Homo sapiens, Jurkat, 20 h, PHA 2.5 μg/mL, IL-2 ELISA. The class given is cell-based. On the procedure: Jurkat cells were placed in a 96 well plate (0.5 million cells per well in 1% FBS medium) then a test compound of this invention was added at different concentrations. After 10 minutes, the cells were activated with PHA (final concentration 2.5 μg/mL) and incubated for 20 hours at 37° C. under CO2. The final volume was 200 μL. Following incubation, the cells were centrifuged and the supernatants collected and stored at −70° C. prior to assaying for IL-2 production. A commercial ELISA kit (IL-2 Eli-pair, Diaclone Research, Besancon, France) was used to detect production of IL-2, from which dose response curves were obtained. The IC50 value was calculated as the concentration at which 50% of maximum IL-2 production after stimulation was inhibited versus a non-stimulation control.
A general note: ELISA stands for enzyme-linked immunosorbent assay.
The term pIC50 denotes −log10 of the IC50, conventionally taken in molar units. A lower pIC50 goes with a large IC50. For the compound `O=C(Nc1ccc2c(c1)CCCc1sc(-c3cccnc3)nc1-2)c1c(F)cccc1F` [Compound 155], the pIC50 was 7.00 to 7.52.

For the compound `COc1ccc2c(c1)-c1sc(NC(=O)c3c(F)cccc3F)nc1CCC2` [Compound 8], the negative logarithm of the IC50 (pIC50) is 7.00 to 7.52. Still for that read-out and setting: the same measure for `O=C(Nc1c(F)cccc1F)c1nc2c(s1)-c1cc(-c3ccc(O)nc3)ccc1CCC2` [Compound 117]: 6.60 to 7.00; for `COc1cccc2c1CCCc1nc(NC(=O)c3c(F)cccc3F)ncc1-2` [Compound 91]: 6.60 to 7.00; for `O=C1OCc2ccc(Br)cc2-c2sc(NC(=O)c3c(F)cccc3F)nc21` [Compound 139]: less than 6.00.

Regarding `O=C1NCc2ccc(Br)cc2-c2sc(NC(=O)c3c(F)cccc3F)nc21` [Compound 136], the negative logarithm of the IC50 (pIC50) is less than 6.00. On the same count and under the same terms, for `CC/N=C(/Nc1c(F)cccc1F)c1nc2c(s1)-c1cc(OC)ccc1CCC2` [Compound 149] the value was 6.60 to 7.00; for `Cn1cc(-c2ccc3c(c2)-c2sc(C(=O)Nc4c(F)cccc4F)nc2CCC3)cn1` [Compound 127], no less than 7.52; for `O=C(Nc1nc2c(=O)oc3ccc(O)cc3c2s1)c1c(F)cccc1F` [Compound 15], less than 6.00. The same measure, in the same setting: for `O=C(Nc1c(F)cccc1F)c1nc2c(s1)-c1cc(O)ccc1CCC2` [Compound 32] the value was 7.00 to 7.52; for `O=C(Nc1nc2c(s1)-c1cc(O)ccc1CCC2)c1c(F)cccc1F` [Compound 79], 6.30 to 6.60; for `COc1cccc2c1CCCc1nc(C(=O)Nc3c(F)cccc3F)sc1-2` [Compound 6], 6.30 to 6.60. The same measure, in the same setting: the same measure for `O=C(Nc1nc2c(s1)-c1nc(-c3cccnc3)sc1CCC2)c1c(F)cccc1F` [Compound 88]: 6.00 to 6.30; for `Fc1cccc(F)c1CNc1ccc2c(c1)CCCc1cnc(-c3cccnc3)nc1-2` [Compound 104]: less than 6.00; for `COc1cccc2c1CCCc1nc(NC(=O)c3c(F)cccc3F)sc1-2` [Compound 12]: no less than 7.52.

Regarding `O=C(Nc1c(F)cccc1F)c1nc2c(s1)-c1cc(-c3cn[nH]c3)ccc1CCC2` [Compound 128], the pIC50 is 6.60 to 7.00. The same measure, in the same setting: the same measure for `COc1ccc2c(c1)-c1sc(NC(=O)Nc3c(F)cccc3F)nc1CCC2` [Compound 154]: 6.00 to 6.30. The same measure, in the same setting: the same measure for `CCOC(=O)N(C(=O)c1nc2c(s1)-c1cc(OC)ccc1CCC2)c1c(F)cccc1F` [Compound 143]: 6.60 to 7.00; for `COc1cccc2c1CCCc1nc(C(=O)Nc3ccncc3C)sc1-2` [Compound 11]: less than 6.00.

As for `COc1cccc2c1oc(=O)c1nc(NC(=O)c3c(F)cccc3F)sc12` [Compound 2], the pIC50 was less than 6.00.

The compound `COc1ccc2c(c1)-c1sc(C(=O)Nc3c(F)cccc3F)nc1CCO2` [Compound 33] had a pIC50 of 6.60 to 7.00.

In turn, `O=C(Nc1nc2c(s1)-c1cccc(-c3nccs3)c1CCC2)c1c(F)cccc1F` [Compound 70] gave a negative logarithm of the IC50 (pIC50) of 6.60 to 7.00. On the same count and under the same terms, for `O=C(Nc1c(F)cccc1F)c1nc2c(s1)-c1cc(-c3cnco3)ccc1CCC2` [Compound 19] the value was no less than 7.52. Same read-out and setting: for `CN1Cc2ccc(Br)cc2-c2sc(NCc3c(F)cccc3F)nc2C1` [Compound 137] the value was less than 6.00; for `O=C(Nc1ncc2c(n1)CCCc1cnc(-c3cccnc3)nc1-2)c1c(F)cccc1F` [Compound 89], 6.00 to 6.30; for `Cn1nnnc1-c1ccc2c(c1)CCCc1nc(NC(=O)c3c(F)cccc3F)sc1-2` [Compound 78], no less than 7.52. On the same count and under the same terms, the same measure for `O=C(Nc1nc2c(s1)-c1ccsc1CCC2)c1c(F)cccc1F` [Compound 85]: less than 6.00. `O=C(Nc1nc2c(s1)-c1cc(-c3nccs3)ccc1CCC2)c1c(F)cccc1F` [Compound 83] had a pIC50 of 6.60 to 7.00. On the same count and under the same terms, the same measure for `COC(=O)c1ccc2c(c1)CCCc1nc(NC(=O)c3c(F)cccc3F)sc1-2` [Compound 73]: 7.00 to 7.52; for `COc1ccc2c(c1)-c1sc(/C(=N\O)Nc3c(F)cccc3F)nc1CCC2` [Compound 147]: 6.00 to 6.30. Same read-out and setting: the same measure for `O=C(Nc1c(F)cccc1F)c1nc2c(s1)-c1cc(-c3ccccn3)ccc1CCC2` [Compound 37]: no less than 7.52; for `CN1Cc2ccc(Br)cc2-c2sc(NC(=O)c3c(F)cccc3F)nc2C1` [Compound 138]: 6.30 to 6.60; for `O=C(Nc1c(F)cccc1F)c1nc2c(s1)-c1cc(-c3ccnc(F)c3)ccc1CCC2` [Compound 118]: 6.60 to 7.00. On the same count and under the same terms, for `O=C(Nc1ccc2c(c1)CCCc1cnc(-c3cccnc3)nc1-2)c1c(F)cccc1F` [Compound 99] the value was 7.00 to 7.52; for `Fc1cccc(F)c1CN(Cc1c(F)cccc1F)c1ccc2c(c1)CCCc1cnc(-c3cccnc3)nc1-2` [Compound 103], less than 6.00.

With `Fc1cccc(F)c1CNc1nc2c(s1)-c1cccc(-c3cnco3)c1CCC2` [Compound 69], the negative-log IC50 (pIC50) was 6.30 to 6.60. Still for that read-out and setting: the same measure for `O=C(Nc1c(F)cccc1F)c1nc2c(s1)-c1cc(-c3nccs3)ccc1CCC2` [Compound 34]: no less than 7.52.

Regarding `O=C(Nc1ccc2c(c1)CCCc1cnc(C3CC3)nc1-2)c1c(F)cccc1F` [Compound 110], the pIC50 was 6.30 to 6.60. The compound `O=C(Nc1c(F)cccc1F)c1ccc2c(c1)CCCc1cnc(-c3cccnc3)nc1-2` [Compound 142] gave a negative logarithm of the IC50 (pIC50) of 6.60 to 7.00.

As for `O=C(Nc1nc2c(s1)-c1cccc(O)c1CCC2)c1c(F)cccc1F` [Compound 51], the negative-log IC50 (pIC50) is 7.00 to 7.52. Same read-out and setting: for `COc1ccc2c(c1)CCCc1c-2ncc(NC(=O)c2c(F)cccc2F)[n+]1[O-]` [Compound 97] the value was 6.00 to 6.30; for `O=C(Nc1c(F)cccc1F)c1nc2c(s1)-c1ccccc1CCC2` [Compound 31], less than 6.00; for `CN(C)c1cccc(F)c1C(=O)Nc1nc2c(s1)-c1cc(C#N)ccc1CCC2` [Compound 81], 6.00 to 6.30. The same measure, in the same setting: the same measure for `O=C(Nc1c(F)cccc1F)c1nc2c(s1)-c1cc(-c3cnc[nH]3)ccc1CCC2` [Compound 131]: 6.00 to 6.30; for `COc1ccc(-c2ccc3c(c2)-c2sc(C(=O)Nc4c(F)cccc4F)nc2CCC3)cn1` [Compound 121]: 6.30 to 6.60. `O=C(Nc1nc2c(s1)-c1ccc(-c3nccs3)cc1CCC2)c1c(F)cccc1F` [Compound 75] gave a pIC50 of 6.60 to 7.00. The same measure, in the same setting: for `N=C(Nc1c(F)cccc1F)c1nc2c(s1)-c1cc(-c3cnco3)ccc1CCC2` [Compound 153] the value was 6.30 to 6.60; for `O=C(Nc1c(F)cccc1F)c1nc2c(s1)-c1cc(OC(=O)n3ccnc3)ccc1CCC2` [Compound 111], 6.30 to 6.60; for `O=C(Nc1nc2c(s1)-c1cc(Br)sc1CCC2)c1c(F)cccc1F` [Compound 84], less than 6.00. On the same count and under the same terms, for `COc1ccc2c(c1)-c1cnc(NC(=O)c3c(F)cccc3F)nc1CCO2` [Compound 94] the value was less than 6.00; for `COC(=O)c1ccc2c(c1)-c1sc(C(=O)Nc3c(F)cccc3F)nc1CCC2` [Compound 38], no less than 7.52. Still for that read-out and setting: for `COc1ccc2c(c1)-c1sc(C(=O)Nc3ccncc3C)nc1CCC2` [Compound 10] the value was 6.30 to 6.60; for `COc1ncccc1-c1ccc2c(c1)-c1sc(C(=O)Nc3c(F)cccc3F)nc1CCC2` [Compound 123], no less than 7.52.

The same experiment, now with this note: Homo sapiens, PHA 2.5 μg/mL, 20 hours, IL-2 ELISA.
`O=C(Nc1c(F)ccc([N+](=O)[O-])c1F)c1nc2c(s1)-c1cc([N+](=O)[O-])ccc1CCC2` [Compound 36] gave a negative logarithm of the IC50 (pIC50) of 6.00 to 6.30. `O=C(Nc1c(F)ccc([N+](=O)[O-])c1F)c1nc2c(s1)-c1ccc([N+](=O)[O-])cc1CCC2` [Compound 35] gave a negative logarithm of the IC50 (pIC50) of 6.60 to 7.00.
